# Measured values published in the supplement of paper PMC13380429.
# How the values were obtained:
# Details in all cases: 72 h
# [1] = tested on: Caco-2; assay: cell viability relative to DMSO; higher = less toxic
# [2] = tested on: HepG2; assay: as above
# [3] = tested on: U2OS; assay: as above
# [4] = tested on: Vero E6; assay: as above
# [5] = tested on: Caco-2; assay: relative viability EC50 (midpoint between 100% and the lowest measured viability); higher = less toxic
# [6] = tested on: HepG2; assay: as above
# [7] = tested on: U2OS; assay: as above
# [8] = tested on: Vero E6; assay: as above
# [9] = tested on: Caco-2; assay: drug sensitivity score (DSS) for viability; higher = more toxic; extreme values may be limits of the assay
# [10] = tested on: HepG2; assay: as above
# [11] = tested on: U2OS; assay: as above
# [12] = tested on: Vero E6; assay: as above
# [13] = tested on: Calu-3; assay: cell viability relative to DMSO; higher = less toxic
# [14] = tested on: Calu-3; assay: relative viability EC50 (midpoint between 100% and the lowest measured viability); higher = less toxic
# [15] = tested on: Calu-3; assay: drug sensitivity score (DSS) for viability; higher = more toxic; extreme values may be limits of the assay
Structure (SMILES),cell viability ([1]; 1 nM),cell viability ([1]; 10 nM),cell viability ([1]; 100 nM),cell viability ([1]; 1000 nM),cell viability ([1]; 10000 nM),cell viability ([2]; 1 nM),cell viability ([2]; 10 nM),cell viability ([2]; 100 nM),cell viability ([2]; 1000 nM),cell viability ([2]; 10000 nM),cell viability ([3]; 1 nM),cell viability ([3]; 10 nM),cell viability ([3]; 100 nM),cell viability ([3]; 1000 nM),cell viability ([3]; 10000 nM),cell viability ([4]; 1 nM),cell viability ([4]; 10 nM),cell viability ([4]; 100 nM),cell viability ([4]; 1000 nM),cell viability ([4]; 10000 nM),relative viability EC50 [5],relative viability EC50 [6],relative viability EC50 [7],relative viability EC50 [8],drug sensitivity score [9],drug sensitivity score [10],drug sensitivity score [11],drug sensitivity score [12],cell viability ([13]; 1 nM),cell viability ([13]; 10 nM),cell viability ([13]; 100 nM),cell viability ([13]; 1000 nM),cell viability ([13]; 10000 nM),relative viability EC50 [14],drug sensitivity score [15]
CC(C)(C)CC(=O)Nc1c(F)cc(C(=O)/N=c2\sccn2COP(=O)(O)O)cc1F,97.9%,109%,99.4%,104%,92.3%,101%,114%,94.8%,98.9%,96.9%,95.8%,101%,97%,98.2%,95.5%,107%,104%,102%,96.5%,94.3%,> 10 µM,> 10 µM,> 10 µM,> 10 µM,0,0,0,0,–,–,–,–,–,–,–
Nc1cccc(CNC(=O)c2ccc(Oc3ccc(OCc4cccc(F)c4)cc3)nc2)c1,100%,102%,91.5%,107%,71.2%,92.9%,102%,103%,91.8%,77.9%,99%,106%,94.8%,101%,92.1%,93.4%,99.9%,98.8%,102%,99.3%,–,> 10 µM,> 10 µM,> 10 µM,0.9,1.7,0,0,104%,101%,96.1%,97.7%,81.9%,> 10 µM,0.7
Nc1nccc(-c2c(-c3ccc(F)cc3)ncn2C2CCCCC2)n1,102%,96.2%,97.3%,85.2%,74.8%,97.8%,99.7%,100%,92.4%,43.3%,98.2%,102%,103%,95.5%,85%,105%,103%,99.2%,108%,79.8%,–,2.08 µM,> 10 µM,> 10 µM,2.3,4.3,0.6,0.4,91.1%,100%,105%,87%,62.1%,–,3.7
Nc1ncnc2c1c(-c1ccc(Oc3ccccc3)cc1)nn2C1CCCC1,109%,96.7%,95.7%,93.6%,70.1%,89.7%,101%,92%,88.3%,82%,102%,97.3%,101%,97.4%,78.7%,94.2%,100%,97.1%,90.8%,87.1%,–,> 10 µM,> 10 µM,> 10 µM,2.3,1,1.1,0.3,105%,104%,99%,95.8%,54.5%,–,3
Oc1cc2c(cc1O)[C@H]1c3ccccc3CN[C@@H]1CC2 (racemic) [dihydrexidine],102%,97.7%,99.6%,92.6%,97.9%,83.4%,95.8%,90.9%,93.2%,82.1%,101%,93.2%,104%,96.9%,104%,96.7%,96.7%,96.8%,97.6%,104%,> 10 µM,> 10 µM,> 10 µM,> 10 µM,0,0,0,0,–,–,–,–,–,–,–
Cc1c(NC(=O)c2cc3c(s2)CCCC3)cccc1-c1cn(C)c(=O)c(Nc2ccc(C3C(=O)N(C)CCN3C)cc2)n1 (stereo in doubt) [GDC-0834],104%,98.3%,99.9%,96.3%,74.6%,106%,95.6%,94.7%,107%,97.2%,103%,99.1%,98.5%,101%,92.7%,105%,101%,104%,97.4%,105%,–,> 10 µM,> 10 µM,> 10 µM,1.5,0,0,0,96.6%,100%,96.2%,95.4%,95.8%,> 10 µM,0
